Calls of active or inactive are those of the source. The rule behind the calls is not given here.

Assay [1] has as its target T1, Transcription factor p65 (Homo sapiens, UniProt Q04206). The assay can be described thus: Inhibition of LPS-induced NF-kappa-B p65 phosphorylation in human THP1 cells at 50 uM preincubated for 3 hrs followed by LPS stimulation for 18 hrs. The note with it: THP-1.
Assay [2] deals with T1, Transcription factor p65. Description: Inhibition of NF-kappa-B p65 in human THP1 cells assessed reduction in phosphorylated p65 levels at 50 uM preincubated for 3 hrs followed by LPS stimulation after 18 hrs by Western blot analysis. Type of assay: cell-based. As to conditions: THP-1.
Assay [3] concerns the target T1, Transcription factor p65. Description: Inhibition of NF-kappa-B p65 in human THP1 cells assessed as suppression of LPS-induced TNFalpha release preincubated for 3 hrs followed by LPS stimulation by ELISA. Format: cell-based, THP-1. (In an ELISA, binding on a coated surface is turned into a signal by an enzyme label.)

T1 sequence (Q04206 whole entry): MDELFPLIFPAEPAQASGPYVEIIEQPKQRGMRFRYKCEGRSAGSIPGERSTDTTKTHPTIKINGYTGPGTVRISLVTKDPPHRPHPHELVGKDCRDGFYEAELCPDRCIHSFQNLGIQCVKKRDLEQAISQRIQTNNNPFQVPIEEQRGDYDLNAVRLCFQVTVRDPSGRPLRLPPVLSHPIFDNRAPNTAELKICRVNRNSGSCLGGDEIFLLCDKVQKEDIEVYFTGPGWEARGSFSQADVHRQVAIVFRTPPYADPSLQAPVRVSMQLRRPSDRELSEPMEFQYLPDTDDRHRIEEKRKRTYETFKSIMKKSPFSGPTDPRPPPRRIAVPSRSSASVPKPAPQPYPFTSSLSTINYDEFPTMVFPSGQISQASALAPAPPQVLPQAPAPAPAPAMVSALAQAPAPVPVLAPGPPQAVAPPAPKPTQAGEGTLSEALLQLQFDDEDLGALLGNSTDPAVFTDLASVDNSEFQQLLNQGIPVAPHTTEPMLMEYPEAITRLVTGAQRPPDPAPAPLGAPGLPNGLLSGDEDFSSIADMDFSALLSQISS

Turning to `O=C1C[C@@H](c2ccc(O)c(O[C@@H]3O[C@H](CO)[C@@H](O)[C@H](O)[C@H]3O)c2)Oc2c1c(O)c([C@H](CCc1ccc(O)cc1)c1ccc(O)cc1O[C@@H]1O[C@H](CO)[C@@H](O)[C@H](O)[C@H]1O)c(O)c2[C@@H](CCc1ccc(O)cc1)c1ccc(O)cc1O[C@@H]1O[C@H](CO)[C@@H](O)[C@H](O)[C@H]1O`, the inhibition result in assay [1] and in assay [2] was “Active” throughout.

Take `O=C1C[C@@H](c2ccc(O)c(O[C@@H]3O[C@H](CO)[C@@H](O)[C@H](O)[C@H]3O)c2)Oc2c1c(O)c([C@H](CCc1ccc(O[C@@H]3O[C@H](CO)[C@@H](O)[C@H](O)[C@H]3O)cc1)c1ccc(O[C@@H]3O[C@H](CO)[C@@H](O)[C@H](O)[C@H]3O)cc1O[C@@H]1O[C@H](CO)[C@@H](O)[C@H](O)[C@H]1O)c(O)c2[C@@H](CCc1ccc(O[C@@H]2O[C@H](CO)[C@@H](O)[C@H](O)[C@H]2O)cc1)c1ccc(O[C@@H]2O[C@H](CO)[C@@H](O)[C@H](O)[C@H]2O)cc1O[C@@H]1O[C@H](CO)[C@@H](O)[C@H](O)[C@H]1O`: the inhibition result in assay [1] and in assay [2] was “Active” in each case. In addition, the half-inhibitory concentration (IC50) in assay [3] worked out at 19.3 µM.

A word on the IC50: it is the concentration that gives 50% inhibition.

For the origin of these results see ChEMBL document CHEMBL3868586, “Mansoins C-F, Oligomeric Flavonoid Glucosides Isolated from Mansoa hirsuta Fruits with Potential Anti-inflammatory Activity” (J Nat Prod, 2016).
